Results published in ChEMBL document CHEMBL1137807, “A novel dimeric diterpene from Salvia prionitis” (J Nat Prod, 2001).
Calls of active or inactive are those of the source. No cut-off for these calls is given here.

Assays:
[1] = system: Bel-7402; assay: Antitumor activity against human Bel7402 cells; format: functional, cell-based
[2] = system: HL-60; assay: Antitumor activity against human HL60 cells; format: functional, cell-based

Structure (SMILES) | Activity [1] | Activity [2]
CC(C)c1cc2c(c(O)c1O)[C@@]1(C)CCCC(C)(C)C1=CC2=O | Active | Active
CC(C)C1=CC2=C[C@H]3Oc4c(c(C(C)C)cc5c4[C@]4(C)CCCC(C)(C)C4=CC5=O)O[C@]34C(C)(C)CCC[C@@]4(C)C2=C(O)C1=O | inactive | inactive
